Experimental data taken from patent publication US10238670B2, “9-aminomethyl minocycline compounds and methods of use thereof in urinary tract infection (UTI) treatment” (Paratek Pharmaceuticals, Inc., priority 2016, dated 2019).
Converted amounts (≈) assume the structure as drawn.

Columns and labels:
[1] = In vitro plasma protein binding (ultrafiltration), rat plasma; assay type: in vitro ADME, rat (HanWistar); details: HanWistar, 10-10,000 ng/mL, mean±SD, read-out: mean unbound protein fraction (fu) in plasma
Protocol: (§1) For human binding studies, plasma was obtained from the blood of three healthy male volunteers. Plasma was defrosted from storage at -20° C. before use, and pools of human plasma were used for all studies. Plasma from mouse, rat, and monkey was supplied by Harlan Laboratories Ltd. (Netherlands), Milan […], Switzerland) and Centre de Primatologie ULP (France), respectively. Protein binding was measured using an ultrafiltration method. To asses the suitability of ultrafiltration, the recovery and free permeation of [^14C]-labelled Compound 1 in PBS buffer were investigated. […] Three 1 mL aliquots per concentration were introduced into […]® devices and spun for 1 min at 2000 g (filtrate ≤500 μL). Samples of the spiked solutions, the filtrate and retentate were quantified by LSC; volumes were determined by weighing. The free permeation of the test compound in PBS was evaluated as follows: Ratio=[Cuf/Cr] with Cuf being the concentration in the ultrafiltrate (ng/mL) and Cr the concentration in the retentate (ng/mL). […] Specifically, concentrations of Compound 1 was determined by an UPLC-MS/MS method. […] The ions monitored for Compound 1 was the parent [M+H]^+ ion at m/z 557.3.0; the product ions at m/z 453.4. […] The quantification was performed using Analyst software and Watson LIMS version 7.2.0.01. […] The lower limit of quantitation was 5.0 ng/mL for Compound 1.

[2] = test system: plasma proteins; assay: as above; assay type: in vitro ADME, rat (HanWistar); details: 10-10,000 ng/mL
Protocol: as §1

[3] = test system: Acinetobacter; assay: In vitro MIC, 2010 surveillance isolates; assay type: cell-based; details: N=952
[4] = test system: S. saprophyticus; assay: In vitro MIC90 against common uncomplicated UTI pathogens; assay type: cell-based; details: Staphylococcus saprophyticus
Protocol: The minimum inhibitory concentrations for at least 90% of the isolates (MIC90) tested for Compound 1 against these common pathogens are 1 μg/mL for S. saprophyticus, 2 μg/mL for ESBL-negative E. coli, and 4 μg/mL for ESBL-producing E. coli.

CN(C)c1cc(CNCC(C)(C)C)c(O)c2c1C[C@H]1C[C@H]3[C@H](N(C)C)C(O)=C(C(N)=O)C(=O)[C@@]3(O)C(O)=C1C2=O [Compound 1, 9-[(2,2-dimethyl-propylamino)-methyl]-minocycline]
fraction unbound [1]: 0.739 ± 0.121 | Mean (SD) Bound Fraction [2]: 26.1 (12.3) % | Cumulative % Inhibition at MIC ([3]; MIC 1 μg/ml): 44.1% | Cumulative % Inhibition at MIC ([3]; MIC 2 μg/ml): 73.1% | Cumulative % Inhibition at MIC ([3]; MIC 4 μg/ml): 93.5% | Cumulative % Inhibition at MIC ([3]; MIC 8 μg/ml): 98.5% | Cumulative % Inhibition at MIC ([3]; MIC 16 μg/ml): 99.5% | Cumulative % Inhibition at MIC ([3]; MIC ≤0.5 μg/ml, listed as head image P00018): 31.1% | Cumulative % Inhibition at MIC ([3]; MIC ≥32 μg/ml): 100% | MIC90 [4]: 1 µg/mL (≈ 1.8 µM)
